The source of these data is ChEMBL document CHEMBL5214969, “Synthesis and evaluation of 2,9-disubstituted-1,10-phenanthroline derivatives as G-quadruplex binders” (Bioorg Med Chem, 2022).

Series [1] deals with Quadruplex DNA. Put plainly: Binding affinity to G-quadruplex telomeric DNA 22AG (5'-duplex AGGGTTAGGGTTAGGGTTAGGG-3') (unknown origin) assessed as stabilization by measuring change in melting temperature at 0.5 M by circular dichroism (CD) spectroscopy. It counts as nucleic-acid assay. (CD spectra are sensitive to the conformation of chiral molecules.)
The test system of series [2] is Quadruplex DNA. As to the kind of experiment: Binding affinity to G-quadruplex telomeric DNA 26ceb (5'-duplex AAGGGTGGGTGTAAGTGTGGGTGGGT-3') (unknown origin) assessed as stabilization by measuring change in melting temperature at 5 M by circular dichroism (CD) spectroscopy. It counts as nucleic-acid assay.
Series [3] relates to Quadruplex DNA. Put plainly: Binding affinity to human G-quadruplex telomeric DNA F25CebT (5'-duplex FAM-AGGGTGGGTGTAAGTGTGGGTGGGT-TAM-3') assessed as stabilization by measuring change in melting temperature at 5 uM by FRET melting assay. In kind it is nucleic-acid assay.
Series [4] deals with Quadruplex DNA. As to the kind of experiment: Binding affinity to G-quadruplex telomeric DNA 22CTA (5'-duplex AGGGCTAGGGCTAGGGCTAGGG-3') (unknown origin) assessed as stabilization by measuring change in melting temperature at 5 M by circular dichroism (CD) spectroscopy. In kind it is nucleic-acid assay.
For series [5], the system named is Quadruplex DNA. Put plainly: Binding affinity to G-quadruplex telomeric DNA 26ceb (5'-duplex AAGGGTGGGTGTAAGTGTGGGTGGGT-3') (unknown origin) assessed as stabilization by measuring change in melting temperature at 1 M by circular dichroism (CD) spectroscopy. In kind it is nucleic-acid assay.
For series [6], the system named is Quadruplex DNA. Put plainly: Binding affinity to G-quadruplex telomeric DNA 22CTA (5'-duplex AGGGCTAGGGCTAGGGCTAGGG-3') (unknown origin) assessed as stabilization by measuring change in melting temperature at 0.5 M by circular dichroism (CD) spectroscopy. In kind it is nucleic-acid assay.
In series [7] the test system is Quadruplex DNA. Put plainly: Binding affinity to G-quadruplex telomeric DNA 26ceb (5'-duplex AAGGGTGGGTGTAAGTGTGGGTGGGT-3') (unknown origin) assessed as stabilization by measuring change in melting temperature at 3 M by circular dichroism (CD) spectroscopy. In kind it is nucleic-acid assay.
Series [8] relates to Quadruplex DNA. Put plainly: Binding affinity to G-quadruplex telomeric DNA 22CTA (5'-duplex AGGGCTAGGGCTAGGGCTAGGG-3') (unknown origin) assessed as stabilization by measuring change in melting temperature at 3 M by circular dichroism (CD) spectroscopy. In kind it is nucleic-acid assay.
In series [9] the test system is Quadruplex DNA. Put plainly: Binding affinity to G-quadruplex telomeric DNA 22AG (5'-duplex AGGGTTAGGGTTAGGGTTAGGG-3') (unknown origin) assessed as stabilization by measuring change in melting temperature at 3 M by circular dichroism (CD) spectroscopy. It counts as nucleic-acid assay.
Series [10] concerns Quadruplex DNA. As to the kind of experiment: Binding affinity to human G-quadruplex telomeric DNA F21T (5'-duplex FAM-GGGTTAGGGTTAGGGTTAGGG-TAM-3') assessed as stabilization by measuring change in melting temperature at 5 uM by FRET melting assay. It counts as nucleic-acid assay.
The subject of series [11] is Quadruplex DNA. As to the kind of experiment: Binding affinity to human G-quadruplex telomeric DNA F21CTAT (5'-duplex FAM-GGGCTAGGGCTAGGGCTAGGG-TAM-3') assessed as stabilization by measuring change in melting temperature at 5 uM by FRET melting assay. It counts as nucleic-acid assay.
Series [12] has as its system Quadruplex DNA. As to the kind of experiment: Binding affinity to G-quadruplex telomeric DNA 22AG (5'-duplex AGGGTTAGGGTTAGGGTTAGGG-3') (unknown origin) assessed as stabilization by measuring change in melting temperature at 5 M by circular dichroism (CD) spectroscopy. In kind it is nucleic-acid assay.
The test system of series [13] is Quadruplex DNA. As to the kind of experiment: Binding affinity to G-quadruplex telomeric DNA 22AG (5'-duplex AGGGTTAGGGTTAGGGTTAGGG-3') (unknown origin) assessed as stabilization by measuring change in melting temperature at 1 M by circular dichroism (CD) spectroscopy. It counts as nucleic-acid assay.
Series [14] has as its system NHDF. Put plainly: (§1) Cytotoxicity against human NHDF cells assessed as cell viability at 10 uM after 48 hrs by MTT assay. In kind it is toxicity, cell-based. The settings on record: nhdf, 48 h, 10 µM. (In general: Tetrazolium dyes change colour on reduction, which living cells bring about.)
Series [15] deals with Quadruplex DNA. As to the kind of experiment: Binding affinity to G-quadruplex telomeric DNA 22CTA (5'-duplex AGGGCTAGGGCTAGGGCTAGGG-3') (unknown origin) assessed as stabilization by measuring change in melting temperature at 1 M by circular dichroism (CD) spectroscopy. It counts as nucleic-acid assay.
The test system of series [16] is Quadruplex DNA. As to the kind of experiment: Binding affinity to G-quadruplex telomeric DNA 26ceb (5'-duplex AAGGGTGGGTGTAAGTGTGGGTGGGT-3') (unknown origin) assessed as stabilization by measuring change in melting temperature at 0.5 M by circular dichroism (CD) spectroscopy. It counts as nucleic-acid assay.
In series [17] the test system is NCI-H1299. As to the kind of experiment: Antiproliferative activity against human NCI-H1299 cells assessed as cell viability at 10 uM after 48 hrs by MTT assay. In kind it is functional.
Series [18] has as its system A549. As to the kind of experiment: Antiproliferative activity against human A549 cells assessed as cell viability at 10 uM after 48 hrs by MTT assay. In kind it is functional. The conditions noted are these: for viability at 10 µM: read-out: Activity.
Series [19] relates to Quadruplex DNA. Put plainly: Binding affinity to G-quadruplex telomeric DNA FdxT (5'-duplex FAM-TATAGCTAT-PEG-TATAGCTATA-TAM-3') assessed as stabilization by measuring change in melting temperature at 5 uM by FRET melting assay. In kind it is nucleic-acid assay.
A short description of series [20]: as §1. In kind it is toxicity, cell-based. The conditions noted are these: NHDF cells, read-out: Activity.

Calls of active or inactive are those of the source. The calls are words filed in the database; no cut-off is given here.

In general, ΔTm refers to the change in melting temperature against a reference sample. Regarding `COc1ccc(NCc2ccc3ccc4ccc(CNc5ccc(OC)cc5)nc4c3n2)cc1`, the ΔTm in series [1] is 0.5 °C; in [2], 8.1 °C; in series [3], 3.8 °C; in series [4] it was 3.1 °C; in [5] it was 2.3 °C; in series [6], 0.9 °C. Also, the shift in melting temperature (ΔTm) in [7] was found to be 5.9 °C; in series [8] it was 2.6 °C; in series [9] it was 1.5 °C; in series [10], 9.2 °C; in [11], 4.1 °C; in series [12] it was 1.1 °C. Moreover, the thermal shift (ΔTm) in series [13] was found to be 0.9 °C; in [15], 1.8 °C; in [16], 1.1 °C. Moreover, the Activity entry in [14] is “Toxic”.

Regarding `O=C(N/N=C/c1c(O)ccc2ccccc12)c1ccc2ccc3ccc(C(=O)N/N=C/c4c(O)ccc5ccccc45)nc3c2n1`, the shift in melting temperature (ΔTm) in [3] turned out to be 2.6 °C; in series [10] it was 1 °C.

Take `CCCCCC/N=C/c1ccc2ccc3ccc(/C=N/CCCCCC)nc3c2n1`: the shift in melting temperature (ΔTm) in series [3] was 0.7 °C; in [10], 1.1 °C. Further, the Activity result in series [14] is “Non-Toxic”.

As for `NNC(=O)c1ccc2ccc3ccc(C(=O)NN)nc3c2n1`, the shift in melting temperature (ΔTm) in [3] worked out at 1.2 °C; in [10], 1.8 °C. Besides, the result in series [17] and in series [18] was Active.

For `OCC/N=C/c1ccc2ccc3ccc(/C=N/CCO)nc3c2n1`, the thermal shift (ΔTm) in series [3] amounted to 0.9 °C; in series [10], 1.1 °C.

As for `O=C1NCCNCCNC(=O)c2ccc3ccc4ccc1nc4c3n2`, the results for the ΔTm in series [3] and in [10] were 1.7 °C and 0.4 °C, respectively. Besides, the outcome in [17] and in series [18] was Active.

As for `CC(C)(C)OC(=O)NCC/N=C/c1ccc2ccc3ccc(/C=N/CCNC(=O)OC(C)(C)C)nc3c2n1`, the ΔTm in series [3] and in series [10] was 0.6 °C throughout.

As to `COc1ccc(/N=C/c2ccc3ccc4ccc(/C=N/c5ccc(OC)cc5)nc4c3n2)cc1`, the thermal shift (ΔTm) in series [3] is 0.7 °C; in series [10], 0.8 °C.

In the case of `CC(C)(C)OC(=O)NCCNC(=O)c1ccc2ccc3ccc(C(=O)NCCNC(=O)OC(C)(C)C)nc3c2n1`, the ΔTm in series [3] was 0.8 °C; in series [10], 0.7 °C. The outcome in series [17] and in series [18] was Active.

Turning to `C[n+]1cc(NC(=O)c2ccc3ccc4ccc(C(=O)Nc5cc6ccccc6[n+](C)c5)nc4c3n2)cc2ccccc21`, the ΔTm in series [3] was > 30 °C; in series [19], 0.6 °C; in [10], > 30 °C; in series [11] it was > 30 °C.

Regarding `CCCCCCNCc1ccc2ccc3ccc(CNCCCCCC)nc3c2n1`, the ΔTm in series [10] amounted to 5.3 °C. In series [20], the viability at 48 h, 10 µM was 22.4%. Further, the figures for the viability at 10 µM in [17] (read-out: Activity) and in [18] were 42.9% and 27.4%, respectively.

Consider `NCCNCc1ccc2ccc3ccc(CNCCN)nc3c2n1.O=C(O)C(F)(F)F.O=C(O)C(F)(F)F.O=C(O)C(F)(F)F.O=C(O)C(F)(F)F`, for which the ΔTm worked out at 0.7 °C in [1]; 7.6 °C in [2]; 7.8 °C in [3]; 2.1 °C in [4]; 2.1 °C in series [5]; 0.6 °C in series [6]. In addition, the shift in melting temperature (ΔTm) worked out at 5.4 °C in series [7]; 1.9 °C in series [8]; 3.4 °C in series [9]; 12 °C in [10]; 5.2 °C in series [11]; 3.5 °C in [12]. In addition, the ΔTm is 2.1 °C in [13], 1.3 °C in [15] and 0.9 °C in series [16]. Moreover, the Activity result in [14] is “Toxic”.

As to `CC(C)(C)OC(=O)NCCNCc1ccc2ccc3ccc(CNCCNC(=O)OC(C)(C)C)nc3c2n1`, the ΔTm was 0.9 °C in series [3] and 1.2 °C in [10].

Consider `NCCNC(=O)c1ccc2ccc3ccc(C(=O)NCCN)nc3c2n1`, for which the ΔTm in series [1] came to 0.5 °C; in series [2], 11.7 °C; in series [3], 1.8 °C; in series [4] it was 4.3 °C; in [5] it was 4.6 °C; in [6] it was 0.4 °C. Further, the ΔTm in series [7] was 9.7 °C; in [8], 2.9 °C; in [9], 2.5 °C; in series [10], 7.2 °C; in series [11], 2.9 °C; in series [12], 1.4 °C. For the same compound, the shift in melting temperature (ΔTm) in series [13] turned out to be 0.3 °C; in series [15] it was 1.3 °C; in series [16] it was 3.4 °C. Moreover, the viability at 48 h, 10 µM in series [20] is 75.1%. Also, the result in [17] was Active. The viability at 10 µM in [18] worked out at 24.5%.

Turning to `OCCNCc1ccc2ccc3ccc(CNCCO)nc3c2n1`, the ΔTm in series [3] was found to be 0.4 °C; in [10], 1.2 °C.

For `CC/N=C/c1ccc2ccc3ccc(/C=N/CC)nc3c2n1`, the ΔTm in [3] worked out at 1.2 °C; in series [10], 1.5 °C.

Regarding `O=C1NCCOCCOCCNC(=O)c2ccc3ccc4ccc1nc4c3n2`, the ΔTm in series [3] turned out to be 0.4 °C; in [10] it was 0.5 °C. Besides, the outcome in series [17] and in series [18] was Active.
